# How the values were obtained:
# Assay in all cases: microbe, parasite or virus in culture
# [1] = test system: A. pittii clinical isolates; assay type: cell-based
# Procedure: (§1) The following report describes the genomic analysis of these isolates for likely resistance mechanisms. Biochemical analysis of purified PBP3 and phenotypic analyses of both clinical and isogenic strains were also conducted to determine the relative impact of key resistance determinants to SUL-DUR antibacterial activity.
# (§2) Antimicrobial susceptibility testing was performed using broth microdilution following standardized methods established by the Clinical Laboratory Standards Institute (CLSI) ([35], [36]). […] MIC values were interpreted using CLSI breakpoints for all antimicrobial agents except those for which CLSI breakpoints are not available ([35]). SUL-DUR was tested as twofold dilutions of sulbactam in combination with a fixed concentration of 4 µg/mL durlobactam ([35]).
# [2] = test system: A. nosocomialis clinical isolate; assay type: cell-based; conditions: isolate ARC7023 (IHMA 2118812), France, BSI, 2019
# Procedure: as §1, §2
# [3] = test system: A. baumannii clinical isolates; assay type: cell-based
# Procedure: as §1, §2
# [4] = test system: ABC clinical isolates with SUL-DUR MIC > 4 µg/mL; assay type: cell-based, Acinetobacter baumannii-calcoaceticus complex
# Procedure: as §1, §2
smiles,measurement,setting,value
NCC[C@H](O)C(=O)N[C@@H]1C[C@H](N)[C@@H](O[C@H]2O[C@H](CN)[C@@H](O)[C@H](O)[C@H]2O)[C@H](O)[C@H]1O[C@H]1O[C@H](CO)[C@@H](O)[C@H](N)[C@H]1O [AMK],MIC,"[1]; isolate ARC6949 (IHMA 1898982), Romania, RTI, 2018",>64 µg/mL
same,MIC,"[1]; isolate ARC6951 (IHMA 1776233), Philippines, RTI, 2018",32 µg/mL
same,MIC,"[1]; isolate ARC6952 (IHMA 1899008), Romania, RTI, 2018",>64 µg/mL
same,MIC,"[1]; isolate ARC7087 (IHMA 2212062), Colombia, BSI, 2020",8 µg/mL
same,MIC,[2],4 µg/mL
same,MIC,"[3]; isolate ARC6644 (IHMA 1420327), Mexico, UTI, 2016",>64 µg/mL
same,MIC,"[3]; isolate ARC6645 (IHMA 1435703), France, UTI, 2016",2 µg/mL
same,MIC,"[3]; isolate ARC6646 (IHMA 1484127), United States, RTI, 2016",>64 µg/mL
same,MIC,"[3]; isolate ARC6647 (IHMA 1386786), Argentina, RTI, 2016",>64 µg/mL
same,MIC,"[3]; isolate ARC6648 (IHMA 1407634), Spain, RTI, 2016",4 µg/mL
same,MIC,"[3]; isolate ARC6650 (IHMA 1457337), Argentina, RTI, 2016",16 µg/mL
same,MIC,"[3]; isolate ARC6652 (IHMA 1465642), Belgium, RTI, 2016",4 µg/mL
same,MIC,"[3]; isolate ARC6653 (IHMA 1308777), Vietnam, RTI, 2016",>64 µg/mL
same,MIC,"[3]; isolate ARC6799 (IHMA 1562935), Spain, UTI, 2017",64 µg/mL
same,MIC,"[3]; isolate ARC6800 (IHMA 1557526), Turkey, RTI, 2017",>64 µg/mL
same,MIC,"[3]; isolate ARC6801 (IHMA 1662094), Thailand, RTI, 2017",32 µg/mL
same,MIC,"[3]; isolate ARC6802 (IHMA 1557073), Spain, UTI, 2017",>64 µg/mL
same,MIC,"[3]; isolate ARC6803 (IHMA 1589408), Belgium, UTI, 2017",4 µg/mL
same,MIC,"[3]; isolate ARC6805 (IHMA 1558650), United States, RTI, 2017",>64 µg/mL
same,MIC,"[3]; isolate ARC6808 (IHMA 1557168), Spain, RTI, 2017",2 µg/mL
same,MIC,"[3]; isolate ARC6809 (IHMA 1699528), Guatemala, RTI, 2017",32 µg/mL
same,MIC,"[3]; isolate ARC6810 (IHMA 1699548), Guatemala, RTI, 2017",>64 µg/mL
same,MIC,"[3]; isolate ARC6812 (IHMA 1699530), Guatemala, RTI, 2017",4 µg/mL
same,MIC,"[3]; isolate ARC6813 (IHMA 1699543), Guatemala, UTI, 2017",32 µg/mL
same,MIC,"[3]; isolate ARC6814 (IHMA 1699512), Guatemala, RTI, 2017",>64 µg/mL
same,MIC,"[3]; isolate ARC6815 (IHMA 1699513), Guatemala, RTI, 2017",64 µg/mL
same,MIC,"[3]; isolate ARC6816 (IHMA 1699521), Guatemala, RTI, 2017",>64 µg/mL
same,MIC,"[3]; isolate ARC6817 (IHMA 1699523), Guatemala, RTI, 2017",16 µg/mL
same,MIC,"[3]; isolate ARC6818 (IHMA 1683261), Thailand, RTI, 2017",2 µg/mL
same,MIC,"[3]; isolate ARC6819 (IHMA 1683267), Thailand, RTI, 2017",>64 µg/mL
same,MIC,"[3]; isolate ARC6820 (IHMA 1647876), Argentina, RTI, 2017",4 µg/mL
same,MIC,"[3]; isolate ARC6821 (IHMA 1699517), Guatemala, RTI, 2017",2 µg/mL
same,MIC,"[3]; isolate ARC6822 (IHMA 1637626), Guatemala, RTI, 2017",8 µg/mL
same,MIC,"[3]; isolate ARC6823 (IHMA 1620872), Greece, SSSI, 2017",>64 µg/mL
same,MIC,"[3]; isolate ARC6824 (IHMA 1625487), Argentina, BSI, 2017",64 µg/mL
same,MIC,"[3]; isolate ARC6937 (IHMA 1562926), Spain, UTI, 2017",64 µg/mL
same,MIC,"[3]; isolate ARC6950 (IHMA 1820064), Israel, RTI, 2018",>64 µg/mL
same,MIC,"[3]; isolate ARC6953 (IHMA 1909827), Turkey, IAI, 2018",8 µg/mL
same,MIC,"[3]; isolate ARC6954 (IHMA 1838192), Guatemala, SSSI, 2018",16 µg/mL
same,MIC,"[3]; isolate ARC6955 (IHMA 1825425), United States, RTI, 2018",64 µg/mL
same,MIC,"[3]; isolate ARC7008 (IHMA 2009813), Thailand, BSI, 2019",>64 µg/mL
same,MIC,"[3]; isolate ARC7009 (IHMA 2043611), United States, UTI, 2019",>64 µg/mL
same,MIC,"[3]; isolate ARC7010 (IHMA 2043398), United States, RTI, 2019",>64 µg/mL
same,MIC,"[3]; isolate ARC7011 (IHMA 2104553), Germany, RTI, 2019",>64 µg/mL
same,MIC,"[3]; isolate ARC7012 (IHMA 2010001), Thailand, RTI, 2019",>64 µg/mL
same,MIC,"[3]; isolate ARC7013 (IHMA 1962831), Argentina, RTI, 2019",>64 µg/mL
same,MIC,"[3]; isolate ARC7014 (IHMA 2045328), Guatemala, IAI, 2019",>64 µg/mL
same,MIC,"[3]; isolate ARC7015 (IHMA 2045327), Guatemala, UTI, 2019",32 µg/mL
same,MIC,"[3]; isolate ARC7016 (IHMA 2148441), Brazil, BSI, 2019",>64 µg/mL
same,MIC,"[3]; isolate ARC7017 (IHMA 2148446), Brazil, BSI, 2019",64 µg/mL
same,MIC,"[3]; isolate ARC7018 (IHMA 2045454), Guatemala, IAI, 2019",32 µg/mL
same,MIC,"[3]; isolate ARC7019 (IHMA 2114463), Thailand, RTI, 2019",>64 µg/mL
same,MIC,"[3]; isolate ARC7020 (IHMA 2045326), Guatemala, RTI, 2019",>64 µg/mL
same,MIC,"[3]; isolate ARC7021 (IHMA 1966347), Guatemala, RTI, 2019",64 µg/mL
same,MIC,"[3]; isolate ARC7022 (IHMA 2045319), Guatemala, IAI, 2019",>64 µg/mL
same,MIC,"[3]; isolate ARC7024 (IHMA 2059448), Turkey, RTI, 2019",>64 µg/mL
same,MIC,"[3]; isolate ARC7025 (IHMA 2002121), Spain, RTI, 2019",2 µg/mL
same,MIC,"[3]; isolate ARC7026 (IHMA 2104494), Guatemala, BSI, 2019",64 µg/mL
same,MIC,"[3]; isolate ARC7082 (IHMA 2160640), Belgium, BSI, 2020",>64 µg/mL
same,MIC,"[3]; isolate ARC7083 (IHMA 2163687), United States, RTI, 2020",>64 µg/mL
same,MIC,"[3]; isolate ARC7084 (IHMA 2189596), Germany, RTI, 2020",>64 µg/mL
same,MIC,"[3]; isolate ARC7085 (IHMA 2205747), Guatemala, IAI, 2020",>64 µg/mL
same,MIC,"[3]; isolate ARC7086 (IHMA 2207563), Israel, RTI, 2020",>64 µg/mL
same,MIC,"[3]; isolate ARC7088 (IHMA 2215554), Turkey, BSI, 2020",>64 µg/mL
same,MIC,"[3]; isolate ARC7089 (IHMA 2240345), Argentina, BSI, 2020",2 µg/mL
same,MIC,"[3]; isolate ARC7090 (IHMA 2244410), Poland, RTI, 2020",>64 µg/mL
same,MIC,"[3]; isolate ARC7091 (IHMA 2244564), Australia, RTI, 2020",16 µg/mL
same,MIC,"[3]; isolate ARC7092 (IHMA 2258772), United States, BSI, 2020",>64 µg/mL
same,MIC,"[3]; isolate ARC7093 (IHMA 2258783), United States, RTI, 2020",>64 µg/mL
same,MIC,"[3]; isolate ARC7094 (IHMA 2296423), Turkey, RTI, 2020",64 µg/mL
same,MIC,"[3]; isolate ARC7095 (IHMA 2320843), Turkey, BSI, 2020",>64 µg/mL
same,MIC,"[3]; isolate ARC7156 (IHMA 2455450), Greece, RTI, 2021",>64 µg/mL
same,MIC,"[3]; isolate ARC7158 (IHMA 2523738), Italy, BSI, 2021",>64 µg/mL
same,MIC,"[3]; isolate ARC7159 (IHMA 2456229), Malaysia, RTI, 2021",>64 µg/mL
same,MIC,"[3]; isolate ARC7160 (IHMA 2458626), Thailand, RTI, 2021",>64 µg/mL
same,MIC,"[3]; isolate ARC7161 (IHMA 2429252), Ukraine, RTI, 2021",>64 µg/mL
same,MIC,"[3]; isolate ARC7162 (IHMA 2411847), United States, BSI, 2021",>64 µg/mL
same,MIC,"[3]; isolate ARC7163 (IHMA 2477704), United States, BSI, 2021",>64 µg/mL
same,MIC50,[4],>64 µg/mL
same,MIC90,[4],>64 µg/mL
same,MIC Max,[4],>64 µg/mL
same,MIC Min,[4],2 µg/mL
same,%NS (% non-susceptibility),"[4]; 64 non-clonal ABC isolates, 2023 CLSI breakpoints plus FDA breakpoint of 4 µg/mL for SUL-DUR",75%

# From article PMC10648852, “Molecular drivers of resistance to sulbactam-durlobactam in contemporary clinical isolates of Acinetobacter baumannii” (Antimicrobial Agents and Chemotherapy, 2023)
